According to patent publication US6121274A, “Dihydrobenzofurane” (Byk Gulden Lomberg Chemische Fabrik GmbH, priority 1994, dated 2000):

What follows are molecules tested on PDE IV (assay: Inhibition of PDE IV activity (Bauer and Schwabe method adapted to microtiter plates)). Settings: Table A; two-step PDE / 5'-nucleotidase assay, ion-exchange separation.
Format: biochemical

Structure (SMILES)	Inhibition of PDE IV activity, -log IC50
COc1ccc(C(=O)Nc2c(Cl)cncc2Cl)c2c1OC(C)(C)C2 [Compound 1, 2,3-Dihydro-2,2-dimethyl-7-methoxybenzofuran-4-carboxylic acid-N-3,5-dichloro-4-pyridylamide]	8.47
COc1ccc(C(=O)Nc2c(Cl)cncc2Cl)c2c1OC1(CCCC1)C2 [Compound 2, 2,3-Dihydro-7-methoxybenzofuran-2-spiro-1'-cyclopentan-4-carboxylic acid-N-3,5-dichloro-4-pyridylamide]	9.42
O=C(Nc1c(Cl)cncc1Cl)c1ccc(OC(F)F)c2c1CC1(CCCC1)O2 [Compound 3, 7-Difluoromethoxy-2,3-dihydrobenzofuran-2-spiro-1'-cyclopentane-4-carboxylic acid-N-3,5-dichloro-4-pyridylamide]	9.87
COc1ccc(C(=O)Nc2c(Cl)cncc2Cl)c2c1OC1(CCCCC1)C2 [Compound 4, 2,3-dihydro-7-methoxybenzofuran-2-spiro-1'-cyclohexane-4-carboxylic acid-N-3,5-dichloro-4-pyridylamide]	9.09
COc1ccc(C(=O)Nc2c(Cl)cncc2Cl)c2c1OC1(CCOCC1)C2 [Compound 5, 2,3-Dihydro-7-methoxybenzofuran-2-spiro-1'-(4'-oxacyclohexane)-4-carboxylic acid-N-3,5-dichloro-4-pyridylamide]	8.57
CCC1(CC)Cc2c(C(=O)Nc3c(Cl)cncc3Cl)ccc(OC)c2O1 [Compound 6, 2,2-Diethyl-2,3-dihydro-7-methoxybenzofuran-4-carboxylic acid-N-3,5-dichloro-4-pyridylamide]	8.63
COc1ccc(C(=O)Nc2c(Cl)cccc2Cl)c2c1OC1(CCCC1)C2 [Compound 7, 2,3-Dihydro-7-methoxybenzofuran-2-spiro-1'-cyclopentane-4-carboxylic acid-2,6-dichloroanilide]	8.57
COc1ccc(C(=O)Nc2c(F)cccc2F)c2c1OC1(CCCC1)C2 [Compound 8, 2,3-Dihydro-7-methoxybenzofuran-2-spiro-1'-cyclopentane-4-carboxylic acid-2,6-difluoroanilide]	8.42
